# Data taken from patent publication US20160033528A1, “Methods for Selecting Peptides that Bind to Disease Specific Antibodies, Disease Specific Peptides and Uses Thereof” (The Regents of the University of California, priority 2014, published 2016).
# Assays:
# [1] = test system: CD patient IgG antibodies; assay: Individual clone reactivity with individual patient sera by flow cytometry (second-generation PEQ peptides); assay type: binding, human; settings: CD case sera n=18 not used for screening
# Procedure: Depletion of E. coli binding serum antibodies. Diluted sera were depleted of E. coli binding antibodies prior to library screening and clone reactivity assays. To remove E. coli binding antibodies, an overnight culture of cells expressing the library scaffold (eCPX) with or without the v114 peptide were diluted (1:50) in fresh media and grown separately until the optical density at 600 nm (OD600) was ˜0.6. Cells were induced for 1 hr at 37° C., and then 2×10^9 cells from each culture were combined and centrifuged at 3000 ref for 5 min. Cells were resuspended in PBS-T (1 mL) containing 100× diluted pooled or individual sera. Samples were incubated overnight at 4° C. on an orbital shaker at 20 rpm. After incubation, samples were centrifuged at 3000 ref for 5 min (2×), and the depleted serum supernatant was recovered and stored at 4° C. for up to three days before use.
# For flow cytometric analysis and sorting, induced cells corresponding to 5× the estimated remaining clonal diversity were incubated with 1:100-1:200 dilution of pooled sera for 45 min at 4° C. followed by centrifugation and removal of unbound supernatant (3× washing). The pellet was then resuspended in the respective 1:500 biotinylated goat anti-human secondary antibody (IgA/IgG/IgM) in 1× PBST at 4° C. for 45 min followed by centrifugation and removal of unbound supernatant (2× washing). For tertiary labeling, the pellet resuspended in 15 nM SA-PE in 1× PBST at 4° C. for 45 min, followed by another wash via centrifugation and resuspension (3× washing) in ice-cold PBST at a volume between 10^7 and 10^8 cells/mL. Resuspended cells were analyzed using a FACSAria cell sorter (Becton Dickinson) using 488-nm excitation. After sorting, retained cells were amplified for further rounds of sorting by overnight growth and plated to isolate single clones. […]
# In vitro evolution of CD specific peptides. […] To assess the diagnostic sensitivity and specificity of individual peptides, the reactivities of one representative clone from each motif group was measured using CD case (n=18) and non-CD control sera (n=5) not used for screening. […]
# [2] = test system: anti-CSE antibodies; assay: CSE reactivity in matched CD sera at diagnosis and after one year of gluten-free diet; assay type: binding, human; settings: 11 CD cases
# Text: Active CD patients (n=54) ranging in age from 18-74 had small intestinal biopsies with a Marsh 3a-3c histological lesion, tested seropositive for transglutaminase (TG2) and endomysium (EMA) autoantibodies, and were Caucasian. Human lymphocyte antigens (HLA)-typing for the presence of DQ2 or DQ8 alleles was available for 42/54 CD sera.
# Directed evolution pooled clone & individual patient single clone reactivity assays. To compare the reactivity of consensus epitopes from each generation, overnight cultures of individual clones within a consensus epitope family (4-5 clones/family) were diluted (1:50) in fresh media and grown until the OD600 was between 0.5 and 0.7. Cultures of each individual Clones were induced for 45 min, and 10^6 cells from each culture were pooled together. Pooled consensus epitope families were assayed for binding to case and control group sera (3 subjects/group) by flow cytometry. […] Cells expressing the eCPX scaffold without a peptide insert were used as a negative (background) control. […]
# To determine prevalence of anti-CSE antibodies in CD and control subjects, CD and non-CD sera (n=231) were assessed for reactivity to the CSE peptide: MDVRCRDSFVYQCHVGT (SEQ ID NO: 2). […]
# [3] = test system: serum IgA of patients with CD; settings: cited from earlier work
Sequence,CD sera the peptide reacted with (reactive/tested) [1],other results
"GQGQAFPEQGSVPIN [A/VFPEQ motif peptide, focused library 1]",14/18,–
MDVRCRDSFVYQCHVGT [CSE peptide],–,"patients with reduced, but non-zero, levels of epitope reactivity after a GFD ([2]; after one year on a gluten-free diet): 8/11; active CD patients reactive ([2]; sera at time-of-diagnosis): 10/11"
"VAWTMGPEQPLVRAL [PEQPL motif peptide, focused library 1]",11/18,–
"VVKGGSSSLGW [celiac peptide, synthetic peptide of Giovanna et al., PLOS Med. 2006]",–,individual patients with CD whose serum IgA specifically recognized the peptide [3]: 68%
"VWDRGVPEQMFPRKG [PEQxFP motif derived peptide, focused library 1]",18/18,–
